Here are results for two compounds from ChEMBL document CHEMBL5226375, “Synthesis and Comprehensive in Vivo Activity Profiling of Olean-12-en-28-ol, 3β-Pentacosanoate in Experimental Autoimmune Encephalomyelitis: A Natural Remyelinating and Anti-Inflammatory Agent” (J Nat Prod, 2023).

Data set [1] concerns Mus musculus. The data set can be described thus: Anti-inflammatory activity against MOG35-55-induced experimental autoimmune encephalomyelitis C57BL/6 mouse model assessed as methylation of CpG sites of TGFB1 gene promoter in brain at 600 mg/kg, ig for 14 days starting from 12th day of immunization by PCR analysis (reference value: 18.3 +/-4%). It counts as functional. The following applies: time 14 day.

Data set [2] is described as follows: Stability of the compound in THF/phosphate buffer at pH 6.5 incubated for 2 hrs under stirring conditions by 1H-NMR analysis. The note with it: pH 6.5, 2 h. It counts as physicochemical.
Data set [3] relates to Mus musculus. In words: Anti-inflammatory activity against MOG35-55-induced experimental autoimmune encephalomyelitis C57BL/6 mouse model assessed as fold change in TGFB1 gene expression in brain at 600 mg/kg/day, ig for 14 days starting from 12th day of immunization by RT-qPCR analysis relative to control. It counts as functional. The note with it: time 14 day. (In general: In qPCR the cycle at which signal appears reflects the starting amount.)

The subject of data set [4] is Mus musculus. In words: Anti-inflammatory activity against MOG35-55-induced experimental autoimmune encephalomyelitis C57BL/6 mouse model assessed as reduction in serum chemokines level by measuring reduction in IL-3 level at 600 mg/kg/day, ig for 14 days starting from 12th day of immunization by ELISA. The note with it: time 14.0 day. It counts as functional, organism-based. (ELISA stands for enzyme-linked immunosorbent assay.)

Data set [5] relates to Mus musculus. In words: Anti-inflammatory activity against MOG35-55-induced experimental autoimmune encephalomyelitis C57BL/6 mouse model assessed as fold change in GFAP gene expression in brain at 300 mg/kg/day, ig for 14 days starting from 12th day of immunization by RT-qPCR analysis relative to control. It counts as functional. The note with it: time 14 day.
For data set [6], the system named is Mus musculus. The data set can be described thus: Anti-inflammatory activity against MOG35-55-induced experimental autoimmune encephalomyelitis C57BL/6 mouse model assessed as methylation of CpG sites of […] gene promoter in brain at 600 mg/kg, ig for 14 days starting from 12th day of immunization by PCR analysis (reference value: 45 +/-7%). It counts as functional. The note with it: time 14 day.

Data set [7] concerns Mus musculus. The data set can be described thus: Anti-inflammatory activity against MOG35-55-induced experimental autoimmune encephalomyelitis C57BL/6 mouse model assessed as methylation of CpG sites of IL13 gene promoter in brain at 600 mg/kg, ig for 14 days starting from 12th day of immunization by PCR analysis (reference value: 57.3 +/-8%). The data set is classed as functional. The following applies: time 14 day.

In data set [8] the test system is Mus musculus. In words: Anti-inflammatory activity against MOG35-55-induced experimental autoimmune encephalomyelitis C57BL/6 mouse model assessed as reduction in serum chemokines level by measuring reduction in FASL level at 600 mg/kg/day, ig for 14 days starting from 12th day of immunization by ELISA. The data set is classed as functional, organism-based. The following applies: time 14.0 day.

In data set [9] the test system is Mus musculus. In words: Anti-inflammatory activity against MOG35-55-induced experimental autoimmune encephalomyelitis C57BL/6 mouse model assessed as fold change in TNF-alpha gene expression in brain at 0.3 mg/kg/day, ig for 14 days starting from 12th day of immunization by RT-qPCR analysis relative to control. The data set is classed as functional. The following applies: time 14 day.

Data set [10] deals with Mus musculus. The data set can be described thus: Anti-inflammatory activity against MOG35-55-induced experimental autoimmune encephalomyelitis C57BL/6 mouse model assessed as reduction in serum […] cytokine level by measuring reduction in IL-17 level at 0.3 mg/kg/day, ig for 14 days starting from 12th day of immunization by ELISA. It counts as functional, organism-based. The note with it: time 14.0 day.

Data set [11] relates to Mus musculus. In words: Anti-inflammatory activity against MOG35-55-induced experimental autoimmune encephalomyelitis C57BL/6 mouse model assessed as fold change in CCL5 gene expression in brain at 0.15 mg/kg/day, ig for 14 days starting from 12th day of immunization by RT-qPCR analysis relative to control. The data set is classed as functional. The note with it: time 14 day.

The subject of data set [12] is Mus musculus. In words: Anti-inflammatory activity against MOG35-55-induced experimental autoimmune encephalomyelitis C57BL/6 mouse model assessed as fold change in HIF1A gene expression in brain at 0.3 mg/kg/day, ig for 14 days starting from 12th day of immunization by RT-qPCR analysis relative to control. The data set is classed as functional. The note with it: time 14 day.

Data set [13] relates to Mus musculus. The data set can be described thus: Anti-inflammatory activity against MOG35-55-induced experimental autoimmune encephalomyelitis C57BL/6 mouse model assessed as fold change in YWHAH gene expression in brain at 0.15 mg/kg/day, ig for 14 days starting from 12th day of immunization by RT-qPCR analysis relative to control. The data set is classed as functional. The following applies: time 14 day.

Structures are written as SMILES. The source made the active and inactive calls. The rule behind the calls is not given here.

Turning to `CCCCCCCCCCCCCCCCCCCCCCCCC(=O)O[C@H]1CC[C@]2(C)[C@H]3CC=C4[C@@H]5CC(C)(C)CC[C@]5(CO)CC[C@@]4(C)[C@]3(C)CC[C@H]2C1(C)C`, the Activity in the data set on Mus musculus [1] amounted to 39.8%; in the data set on Mus musculus [6], 44.7%; in the data set on Mus musculus [7], 47.9%. Besides, the Stability result in data set [2] is on record as “Stable”. The “fold change (FC)” value in the data set on Mus musculus [3] is on record as 8.29; in the data set on Mus musculus [5] it was 1.17. Moreover, the result with Mus musculus [4] and in the data set on Mus musculus [8] was Active.

On to `CCCCCCCCc1ccc(CCC(N)(CO)CO)cc1` [FINGOLIMOD], for which the “fold change (FC)” value is on record as -1.46 with Mus musculus [9], 4.46 in the data set on Mus musculus [11], 1.86 in the data set on Mus musculus [12] and 1.1 with Mus musculus [13]. The result in the data set on Mus musculus [10] was Active.
